Data on 27 compounds can be found in PubChem BioAssay AID278 (DTP/NCI, 2004).

Several values for one entry are separate records, joined by “and”; a condition that tells them apart may be missing. Equal entries are not always repeated. Results filed as inconclusive are left out.

The test relates to nude mice, A549 intrarenal xenograft, tumor weight change. Briefly: NCI In Vivo Anticancer Drug Screen. Data for tumor model A549 Human Adenocarcinoma of Lung with characteristics of Type II Alveolar Epithelial cells (intrarenal inoculation) in NU/NU BALB/C (nude) mice. The note with it: endpoint: mean tumor weight change, higher = larger tumour. A digest of the protocol: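 Activity is expressed as T/C: the treated-group value over the vehicle-treated control value. The measure was survival or tumor size in mice carrying transplantable tumors.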

The mark [1] stands for this setting: dose: 150.0 mg/kg/injection, schedule: Q04DX003 (ip), vehicle: saline.
Where [2] appears, read: dose: 300.0 mg/kg/injection, schedule: Q04DX003 (ip), vehicle: saline.
Where [3] appears, read: dose: 600.0 mg/kg/injection, schedule: Q04DX003 (ip), vehicle: saline.
[4] abbreviates: dose: 150.0 mg/kg/injection, schedule: Q04DX003 (ip), vehicle: Klucel (hydroxypropylcellulose) (HPC).
Where [5] appears, read: dose: 37.5 mg/kg/injection, schedule: Q04DX003 (ip), vehicle: water.
[6] abbreviates: dose: 75.0 mg/kg/injection, schedule: Q04DX003 (ip), vehicle: water.
Setting [7] is: dose: 12.5 mg/kg/injection, schedule: Q04DX003 (ip), vehicle: saline with Tween-80.
Where [8] appears, read: dose: 25.0 mg/kg/injection, schedule: Q04DX003 (ip), vehicle: saline with Tween-80.
Setting [9] is: dose: 75.0 mg/kg/injection, schedule: Q04DX003 (ip), vehicle: saline with Tween-80.
[10] abbreviates: dose: 150.0 mg/kg/injection, schedule: Q04DX003 (ip), vehicle: saline with Tween-80.
[11] abbreviates: dose: 300.0 mg/kg/injection, schedule: Q04DX003 (ip), vehicle: saline with Tween-80.
Setting [12] is: dose: 75.0 mg/kg/injection, schedule: Q04DX003 (ip), vehicle: saline.
[13] abbreviates: dose: 50.0 mg/kg/injection, schedule: Q04DX003 (ip), vehicle: saline with Tween-80.
Setting [14] is: dose: 100.0 mg/kg/injection, schedule: Q04DX003 (ip), vehicle: saline with Tween-80.

Turning to `O=C1C=C(N2CC2)C(=O)C(N2CC2)=C1N1CC1`, the T/C is 25 % of control and 29 % of control (dose: 100.0 micrograms/kg/injection, schedule: Q04DX003 (ip), vehicle: saline); -27 % of control (dose: 144.0 micrograms/kg/injection, schedule: Q04DX003 (ip), vehicle: saline + alcohol); -14 % of control (dose: 240.0 micrograms/kg/injection, schedule: Q04DX003 (ip), vehicle: saline + alcohol); 6 % of control (dose: 400.0 micrograms/kg/injection, schedule: Q04DX003 (ip), vehicle: saline).

Take `CCOc1ccc(C(C)c2cc3c(cc2OC)OCO3)cc1` (stereo not drawn): the T/C is, setting by setting: (dose: 100.0 mg/kg/injection, schedule: Q04DX003 (ip), vehicle: distilled water + Tween-80) 61 % of control; (dose: 200.0 mg/kg/injection, schedule: Q04DX003 (ip), vehicle: distilled water + Tween-80) 59 % of control; (dose: 400.0 mg/kg/injection, schedule: Q04DX003 (ip), vehicle: distilled water + Tween-80) 63 % of control.

Consider `CC1(C)Nc2cc3c(cc2-n2cccc21)oc1ccccc13`, for which the T/C under setting [1] was 77 % of control; the T/C under setting [2] was 98 % of control; the T/C under setting [3] was 66 % of control; the T/C (dose: 1200.0 mg/kg/injection, schedule: Q04DX003 (ip), vehicle: saline) was 57 % of control.

On to `COC12[C@@H]3N[C@@H]3CN1C1=C(C(=O)C(NCCSSCCNC3=C(C)C(=O)C4=C(C3=O)C(COC(N)=O)[C@]3(OC)C5N[C@@H]5CN43)=C(C)C1=O)[C@@H]2COC(N)=O` (stereo partly drawn), for which the T/C runs as follows: (dose: 1.57 mg/kg/injection, schedule: Q04DX003 (ip), vehicle: DMSO) 29 % of control; (dose: 3.13 mg/kg/injection, schedule: Q04DX003 (ip), vehicle: DMSO) -77 % of control; (dose: 6.25 mg/kg/injection, schedule: Q04DX003 (ip), vehicle: DMSO) -33 % of control; (dose: 12.5 mg/kg/injection, schedule: Q04DX003 (ip), vehicle: DMSO) 2 % of control.

With `O=C1CNC(=O)N1CN1CCOCC1`, the T/C under setting [4] is 198 % of control and the T/C (dose: 300.0 mg/kg/injection, schedule: Q04DX003 (ip), vehicle: Klucel (hydroxypropylcellulose) (HPC)) was 69 % of control.

As for `CO[C@@H]1C2=CC=CC=C[C@H]2n2c(=O)n(C)c(=O)n21`, the T/C is, setting by setting: under setting [5], 223 % of control; (dose: 75.0 mg/kg/injection, schedule: Q04DX003 (ip), vehicle: other) 32 % of control; under setting [6], 195 % of control; (dose: 150.0 mg/kg/injection, schedule: Q04DX003 (ip), vehicle: other) 74 % of control; (dose: 150.0 mg/kg/injection, schedule: Q04DX003 (ip), vehicle: water) 158 % of control.

For the compound `CCC(NC(N)=O)C(CC)NC(N)=O` (stereo not drawn), the T/C by setting is: (dose: 6.25 mg/kg/injection, schedule: Q04DX003 (ip), vehicle: saline with Tween-80) 68 % of control; under setting [7], 120 % of control; under setting [8], 102 % of control.

Turning to `c1ccc(OCC2CO2)c(OCC2CO2)c1` (stereo not drawn), the T/C is, setting by setting: under setting [9], 89 % of control; under setting [10], -20 % of control; under setting [11], 9 % of control.

Regarding `NC(=O)c1[nH]cnc1O`, the T/C under setting [10] is 151 % of control.

`NNC(=O)c1ccncc1`: the T/C runs as follows: (dose: 37.5 mg/kg/injection, schedule: Q04DX003 (ip), vehicle: saline) 99 % of control; under setting [12], 104 % of control; under setting [1], 69 % of control.

On to `CN=NN(C)C(=O)NC`, for which the T/C was 37 % of control (dose: 25.0 mg/kg/injection, schedule: Q04DX003 (ip), vehicle: saline); 27 % of control (dose: 43.2 mg/kg/injection, schedule: Q04DX003 (ip), vehicle: saline); 72 % of control (dose: 50.0 mg/kg/injection, schedule: Q04DX003 (ip), vehicle: saline); 28 % of control (dose: 72.0 mg/kg/injection, schedule: Q04DX003 (ip), vehicle: saline); 8 % of control (dose: 100.0 mg/kg/injection, schedule: Q04DX003 (ip), vehicle: saline); 8 % of control (dose: 120.0 mg/kg/injection, schedule: Q04DX003 (ip), vehicle: saline). For the same compound, where the note is “dose: 200.0 mg/kg/injection, schedule: Q04DX003 (ip), vehicle: saline”, the T/C was -34 % of control and -27 % of control.

Take `COc1ccc(C(C)c2cc3c(cc2OC)OCO3)cc1` (stereo not drawn): the T/C is 17 % of control under setting [7]; 18 % of control and 43 % of control under setting [8]; 33 % of control under setting [13].

Turning to `C=Cc1cc(OC)c2c(c1)c(=O)oc1c2cc(OC)c2c(O)ccc(C3OC(C)C(O)C(C)(O)C3O)c21` (stereo not drawn), for the setting “dose: 300.0 mg/kg/injection, schedule: Q04DX003 (ip), vehicle: DMSO”, the T/C was 32 % of control.

Turning to `C=C(Cl)C(=NC(C)(C)C)Nc1ccccc1C`, the T/C by setting is: (dose: 10.0 mg/kg/injection, schedule: Q04DX003 (ip), vehicle: Klucel + Tween-80) 73 % of control; (dose: 20.0 mg/kg/injection, schedule: Q04DX003 (ip), vehicle: Klucel + Tween-80) 68 % of control.

With `CC(C)(C)NC(C1=CC(C)(C)c2ccccc2C1=O)c1ccccc1` (stereo not drawn), the T/C is 107 % of control (dose: 100.0 mg/kg/injection, schedule: Q04DX003 (ip), vehicle: Klucel (hydroxypropylcellulose) (HPC)) and 65 % of control (dose: 200.0 mg/kg/injection, schedule: Q04DX003 (ip), vehicle: Klucel (hydroxypropylcellulose) (HPC)).

Consider `Nc1ccc2ccc(N)cc2c1`, for which the T/C is, setting by setting: under setting [14], 87 % of control; (dose: 200.0 mg/kg/injection, schedule: Q04DX003 (ip), vehicle: saline with Tween-80) 111 % of control; (dose: 400.0 mg/kg/injection, schedule: Q04DX003 (ip), vehicle: saline with Tween-80) 55 % of control.

For `CN=C(N)N/N=C(\C)c1ccc2sc3ccc(/C(C)=N/NC(N)=NC)cc3c2c1`, the T/C under setting [9] was 118 % of control, the T/C under setting [10] is 95 % of control and the T/C under setting [11] is 83 % of control.

In the case of `COC1CC2C=C(C)/C=C/C=C/C(=O)NC(c3ccccc3)C/C=C/CCC(O)CC(=O)C2=C1O` (stereo not drawn), the T/C was 17 % of control (dose: 37.5 mg/kg/injection, schedule: Q04DX003 (ip), vehicle: Klucel (hydroxypropylcellulose) (HPC)); 115 % of control (dose: 75.0 mg/kg/injection, schedule: Q04DX003 (ip), vehicle: Klucel (hydroxypropylcellulose) (HPC)); 113 % of control under setting [4].

Take `COc1ccc(C[C@@H]2NC[C@@H](O)[C@@H]2OC(C)=O)cc1`: the T/C (dose: 37.5 mg/kg/injection, schedule: Q04DX003 (ip), vehicle: saline with Tween-80) was 87 % of control; the T/C under setting [9] is 48 % of control; the T/C under setting [10] is 86 % of control.

Consider `N#Cc1c(N)[nH]c2ccc(Sc3ccccc3)cc12`, for which the T/C by setting is: (dose: 30.0 mg/kg/injection, schedule: Q04DX003 (ip), vehicle: saline) 106 % of control; (dose: 60.0 mg/kg/injection, schedule: Q04DX003 (ip), vehicle: saline) 42 % of control; (dose: 240.0 mg/kg/injection, schedule: Q04DX003 (ip), vehicle: saline) 49 % of control.

Consider `CC(=O)C[n+]1ccc(C)cc1Sc1ccccc1C`, for which the T/C was 112 % of control under setting [13] and 44 % of control under setting [14].

`CC(=O)NCCSSCCCCS(=O)O`: the T/C runs as follows: under setting [12], 111 % of control; under setting [1], 60 % of control; under setting [2], 39 % of control; under setting [3], 70 % of control.

Consider `CCCCCCNc1nc(NCCCCCC)c2[nH]c(NCCCCCC)nc2n1`, for which the T/C reads like this: under setting [9], 52 % of control; under setting [10], 117 % of control.

As to `Cc1cc(Br)c2nsnc2c1[N+](=O)[O-]`, the T/C is, setting by setting: under setting [10], 7 % of control and 26 % of control; (dose: 1200.0 mg/kg/injection, schedule: Q04DX003 (ip), vehicle: saline with Tween-80) 38 % of control.

Take `CN=C(N)c1ccc(N=C(N)c2ccc(C(N)=Nc3ccc(C(N)=NC)cc3)cc2)cc1`: the T/C (dose: 13.0 mg/kg/injection, schedule: Q06HX010 (ip), vehicle: water) is 70 % of control and the T/C (dose: 20.0 mg/kg/injection, schedule: Q06HX010 (ip), vehicle: water) is 98 % of control.

`Oc1cccc2ccccc12`: the T/C runs as follows: under setting [5], 102 % of control; under setting [6], 54 % of control.

On to `CC(O)CCC(=O)c1ccoc1` (stereo not drawn), for which the T/C is 186 % of control (dose: 24.0 mg/kg/injection, schedule: Q04DX003 (ip), vehicle: saline) and 82 % of control (dose: 32.0 mg/kg/injection, schedule: Q04DX003 (ip), vehicle: saline).
